In ChEMBL document CHEMBL1201862, “PubChem BioAssay data set” (2004):
Active and inactive are the calls of the source.

Experiments:
[1] = target: Macrophage colony-stimulating factor 1 receptor (Homo sapiens, UniProt P07333); type: functional;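 also: value comes from the Navigating the Kinome screening panel, CSF1R member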
[2] = target: Vascular endothelial growth factor receptor 2 (Homo sapiens, UniProt P35968); type: functional
[3] = target: Cyclin-dependent kinase 19 (Homo sapiens, UniProt Q9BWU1); assay: Navigating the Kinome. Panel member name: CDC2L6; type: functional
Sequence of Cyclin-dependent kinase 19 (Q9BWU1 whole entry): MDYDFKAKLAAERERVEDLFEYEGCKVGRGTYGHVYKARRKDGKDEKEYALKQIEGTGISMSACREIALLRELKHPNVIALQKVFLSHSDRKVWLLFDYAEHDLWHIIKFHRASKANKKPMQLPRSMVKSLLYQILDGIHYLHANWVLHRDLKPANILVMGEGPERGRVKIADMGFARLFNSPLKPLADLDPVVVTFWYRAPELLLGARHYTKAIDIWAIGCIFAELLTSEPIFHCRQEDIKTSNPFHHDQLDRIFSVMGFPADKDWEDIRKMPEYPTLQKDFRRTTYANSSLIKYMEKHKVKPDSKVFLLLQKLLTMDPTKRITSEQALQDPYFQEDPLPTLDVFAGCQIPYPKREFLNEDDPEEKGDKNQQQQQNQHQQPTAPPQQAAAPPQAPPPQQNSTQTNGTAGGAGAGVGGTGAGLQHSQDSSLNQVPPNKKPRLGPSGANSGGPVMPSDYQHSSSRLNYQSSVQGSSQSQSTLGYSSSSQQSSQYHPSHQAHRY

[4] = target: Dual specificity protein kinase CLK4 (Homo sapiens, UniProt Q9HAZ1); type: functional
[5] = target: Benomyl/methotrexate resistance protein (Candida albicans, UniProt P28873); assay: CaMdr1 efflux pump inhibitor potency, dose response, singleplex, Cherry Pick1 hits (AID 588608); type: functional
[6] = target: Multidrug resistance protein CDR1 (Candida albicans, UniProt P43071); assay: CaCdr1 efflux pump inhibitor potency, dose response, singleplex, Cherry Pick2 set (AID 623996); type: functional; settings: read-out: EC50_MICROM
Sequence of Multidrug resistance protein CDR1 (P43071 whole entry, looked up): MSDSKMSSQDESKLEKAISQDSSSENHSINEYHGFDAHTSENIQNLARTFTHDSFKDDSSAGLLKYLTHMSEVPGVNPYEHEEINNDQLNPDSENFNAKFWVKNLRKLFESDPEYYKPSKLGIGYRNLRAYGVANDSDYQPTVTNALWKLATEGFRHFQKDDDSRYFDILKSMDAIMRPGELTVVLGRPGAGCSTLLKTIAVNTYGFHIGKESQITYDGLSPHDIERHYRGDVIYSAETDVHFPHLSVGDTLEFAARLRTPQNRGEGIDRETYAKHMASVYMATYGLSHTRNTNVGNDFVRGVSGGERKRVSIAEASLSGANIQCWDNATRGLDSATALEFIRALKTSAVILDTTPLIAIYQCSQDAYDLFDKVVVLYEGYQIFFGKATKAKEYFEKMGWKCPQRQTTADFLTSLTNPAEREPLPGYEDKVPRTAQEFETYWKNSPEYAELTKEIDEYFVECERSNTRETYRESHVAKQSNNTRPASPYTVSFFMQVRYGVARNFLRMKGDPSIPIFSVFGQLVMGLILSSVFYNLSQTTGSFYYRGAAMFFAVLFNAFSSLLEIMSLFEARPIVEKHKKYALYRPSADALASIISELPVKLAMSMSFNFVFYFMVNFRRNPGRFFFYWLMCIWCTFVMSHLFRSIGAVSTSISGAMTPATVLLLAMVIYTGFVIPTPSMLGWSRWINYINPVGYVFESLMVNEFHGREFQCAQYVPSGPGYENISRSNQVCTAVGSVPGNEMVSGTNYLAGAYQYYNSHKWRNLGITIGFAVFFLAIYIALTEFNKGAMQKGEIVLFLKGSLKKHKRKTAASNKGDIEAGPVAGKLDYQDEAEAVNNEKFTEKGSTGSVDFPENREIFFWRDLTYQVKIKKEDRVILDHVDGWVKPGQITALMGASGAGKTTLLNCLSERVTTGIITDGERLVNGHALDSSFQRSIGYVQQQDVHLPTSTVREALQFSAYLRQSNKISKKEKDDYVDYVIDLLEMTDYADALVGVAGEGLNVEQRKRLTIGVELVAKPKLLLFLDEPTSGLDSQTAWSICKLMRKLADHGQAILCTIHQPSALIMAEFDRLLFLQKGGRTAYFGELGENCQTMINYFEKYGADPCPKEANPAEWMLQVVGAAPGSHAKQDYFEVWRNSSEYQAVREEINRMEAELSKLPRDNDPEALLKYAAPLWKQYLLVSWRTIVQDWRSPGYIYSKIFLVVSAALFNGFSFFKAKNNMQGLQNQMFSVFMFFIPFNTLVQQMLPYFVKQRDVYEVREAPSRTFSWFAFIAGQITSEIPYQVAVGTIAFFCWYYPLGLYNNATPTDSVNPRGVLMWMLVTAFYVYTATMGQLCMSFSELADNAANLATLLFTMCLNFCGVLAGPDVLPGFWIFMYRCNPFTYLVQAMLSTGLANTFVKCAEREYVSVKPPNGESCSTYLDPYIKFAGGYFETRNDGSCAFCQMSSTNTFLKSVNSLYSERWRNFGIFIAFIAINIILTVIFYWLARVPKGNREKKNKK

[7] = inhibitors of intracellular T. cruzi replication, confirmation, NIH3T3 host cells, beta-gal luminescence (AID 2044); type: functional, cell-based;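 also: intracellular parasites grown in NIH/3T3 mouse fibroblasts as host cells; luminescent beta-galactosidase reporter signal from transgenic T. cruzi replicating inside host cells; inhibitors lower the luminescence signal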
[8] = cytotoxicity toward NIH3T3 fibroblasts, dose response, counter-screen, cell-based, ATP luminescence, mouse fibroblasts (AID 2010); type: functional;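 also: cells exposed to compound for about 90 hours before reading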
Paired box protein Pax-8 = Paired box protein Pax-8 (Homo sapiens, UniProt Q06710); assay: inhibitors of PAX8-driven TPO luciferase reporter, dose response, RMG-I cells, cherry-pick (AID 687027); type: functional, cell-based;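 also: luciferase reporter driven by Pax8 target thyroperoxidase promoter measured by SteadyGlo luminescence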
Sequence of Paired box protein Pax-8 (Q06710 whole entry): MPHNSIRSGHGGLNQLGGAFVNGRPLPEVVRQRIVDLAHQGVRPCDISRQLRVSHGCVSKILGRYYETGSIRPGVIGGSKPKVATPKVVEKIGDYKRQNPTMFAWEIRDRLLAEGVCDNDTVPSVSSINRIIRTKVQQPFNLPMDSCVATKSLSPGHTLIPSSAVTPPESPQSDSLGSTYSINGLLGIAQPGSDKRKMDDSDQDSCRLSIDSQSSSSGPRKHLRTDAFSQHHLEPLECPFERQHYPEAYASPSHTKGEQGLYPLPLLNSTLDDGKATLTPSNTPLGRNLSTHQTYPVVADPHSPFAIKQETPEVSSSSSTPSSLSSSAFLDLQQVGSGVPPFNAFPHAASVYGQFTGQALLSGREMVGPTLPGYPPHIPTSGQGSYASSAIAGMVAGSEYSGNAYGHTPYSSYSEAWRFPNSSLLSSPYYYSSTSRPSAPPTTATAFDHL

[9] = inhibitors of control Renilla luciferase reporter, dose response, counter-screen for Shn3 3'UTR targeting project, Clone20-Shn3RL cells, dual-Glo, cherry-pick, set 2 (AID 720724); type: functional, cell-based; settings: Dual-Go Shn3RL
[10] = target: Sphingosine 1-phosphate receptor 1 (Homo sapiens, UniProt P21453); type: functional;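 also: Tango beta-arrestin reporter U2OS cells stimulated with S1P near its EC80; inhibitor potency meaning antagonism of receptor activation by the natural agonist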
Sequence of Sphingosine 1-phosphate receptor 1 (P21453 whole entry): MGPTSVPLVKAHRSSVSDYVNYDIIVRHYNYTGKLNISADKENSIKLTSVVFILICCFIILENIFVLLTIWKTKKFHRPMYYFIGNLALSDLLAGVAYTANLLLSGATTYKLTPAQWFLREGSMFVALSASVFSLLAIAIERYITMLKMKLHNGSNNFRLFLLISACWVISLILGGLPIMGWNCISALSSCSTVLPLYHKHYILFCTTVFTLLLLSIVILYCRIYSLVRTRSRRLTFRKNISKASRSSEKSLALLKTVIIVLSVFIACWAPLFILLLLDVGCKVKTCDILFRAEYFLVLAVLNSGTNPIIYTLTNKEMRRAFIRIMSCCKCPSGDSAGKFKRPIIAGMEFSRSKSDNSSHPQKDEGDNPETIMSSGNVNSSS

[11] = C. albicans growth with fluconazole, confirmation, fluorescence, retest (AID 2467); type: functional, cell-based
[12] = reduction of endogenous Shn3 mRNA, dose response, qPCR, Clone20 cells, cherry-pick (AID 743415); type: functional, cell-based
[13] = reduction of Shn3 3'UTR firefly luciferase signal, dose response, Schnurri-3 inhibitor project, cell-based, Clone20 osteoblasts, cherry-pick, set 2 (AID 720490); type: functional;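 also: actives lower the luminescence signal as inhibitors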
[14] = control 3'UTR Renilla luciferase suppression, dose response, counter-screen for Shn3 inhibitor project, cell-based, Clone20-Shn3RL, cherry-picked (AID 624133); type: functional
[15] = A Cell Based Secondary Assay to Explore Cytotoxicity in HepG2 Cells of Compounds that Modulate Mycobacterium tuberculosis in Media Containing Glycerol versus Media without Glycerol (2).; type: functional
[16] = target: T1, Replicative DNA helicase DnaB (Mycobacterium tuberculosis, UniProt P9WMR3); assay: DnaB intein splicing inhibitors, dose response, biochemical, cell-free fluorescence (AID 449749); type: functional
T1 sequence (P9WMR3 whole entry): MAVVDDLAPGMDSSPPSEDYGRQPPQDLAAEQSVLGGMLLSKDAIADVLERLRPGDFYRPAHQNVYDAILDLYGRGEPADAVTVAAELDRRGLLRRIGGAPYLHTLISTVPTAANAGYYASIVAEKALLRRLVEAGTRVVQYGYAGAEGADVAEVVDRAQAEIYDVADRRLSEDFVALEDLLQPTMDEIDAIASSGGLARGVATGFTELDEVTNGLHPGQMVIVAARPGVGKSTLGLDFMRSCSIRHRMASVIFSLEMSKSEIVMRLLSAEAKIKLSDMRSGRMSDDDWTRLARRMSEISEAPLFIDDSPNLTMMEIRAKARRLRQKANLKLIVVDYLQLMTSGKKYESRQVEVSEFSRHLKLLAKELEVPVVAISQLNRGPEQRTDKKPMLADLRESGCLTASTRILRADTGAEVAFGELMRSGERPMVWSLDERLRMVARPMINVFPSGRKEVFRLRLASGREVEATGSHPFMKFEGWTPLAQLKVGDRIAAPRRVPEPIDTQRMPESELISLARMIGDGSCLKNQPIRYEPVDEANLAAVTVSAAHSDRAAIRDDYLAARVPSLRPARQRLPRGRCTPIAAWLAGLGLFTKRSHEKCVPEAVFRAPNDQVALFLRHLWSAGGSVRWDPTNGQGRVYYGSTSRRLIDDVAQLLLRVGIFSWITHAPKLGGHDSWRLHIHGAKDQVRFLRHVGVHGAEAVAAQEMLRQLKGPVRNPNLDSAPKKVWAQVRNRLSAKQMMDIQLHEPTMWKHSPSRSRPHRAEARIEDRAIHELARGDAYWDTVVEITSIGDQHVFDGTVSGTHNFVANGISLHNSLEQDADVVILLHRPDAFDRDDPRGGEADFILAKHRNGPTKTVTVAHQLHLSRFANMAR

[17] = NIH-3T3 fibroblast cytotoxicity, dose response, cytotoxicity control, cell-based, fluorescence, Alamar Blue, secondary assay (AID 2327); type: functional;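 also: NIH-3T3 mouse fibroblasts cultured with fluconazole at 8 µg/mL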
[18] = Shn3 3'UTR reporter inhibitors, dose response, cell-based, Clone20 osteoblasts, firefly luciferase, cherry-picked (AID 624132); type: functional;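 also: firefly luciferase luminescence from reporter carrying the Shn3 3'UTR in osteoblasts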
[19] = HepG2 cell cytotoxicity, dose response, cytotoxicity control for Shn3 inhibitor project, CellTiter-Glo, cherry-picked (AID 624134); type: functional, cell-based
[20] = Vero cell cytotoxicity, cytotoxicity control for M. tuberculosis inhibitor project, purified and synthesized samples, set 3 (AID 504684); type: functional
Protein RecA = target: T2, Protein RecA (Mycobacterium tuberculosis, UniProt P9WHJ3); assay: Fluorescence Cell-Free Homogeneous Dose Retest to Identify Inhibitors of RecA-Intein Splicing Activity. [Related pubchem assays (depositor defined):AID2097, AID2223, AID489010, AID492950]; type: functional
T2 sequence (P9WHJ3 whole entry): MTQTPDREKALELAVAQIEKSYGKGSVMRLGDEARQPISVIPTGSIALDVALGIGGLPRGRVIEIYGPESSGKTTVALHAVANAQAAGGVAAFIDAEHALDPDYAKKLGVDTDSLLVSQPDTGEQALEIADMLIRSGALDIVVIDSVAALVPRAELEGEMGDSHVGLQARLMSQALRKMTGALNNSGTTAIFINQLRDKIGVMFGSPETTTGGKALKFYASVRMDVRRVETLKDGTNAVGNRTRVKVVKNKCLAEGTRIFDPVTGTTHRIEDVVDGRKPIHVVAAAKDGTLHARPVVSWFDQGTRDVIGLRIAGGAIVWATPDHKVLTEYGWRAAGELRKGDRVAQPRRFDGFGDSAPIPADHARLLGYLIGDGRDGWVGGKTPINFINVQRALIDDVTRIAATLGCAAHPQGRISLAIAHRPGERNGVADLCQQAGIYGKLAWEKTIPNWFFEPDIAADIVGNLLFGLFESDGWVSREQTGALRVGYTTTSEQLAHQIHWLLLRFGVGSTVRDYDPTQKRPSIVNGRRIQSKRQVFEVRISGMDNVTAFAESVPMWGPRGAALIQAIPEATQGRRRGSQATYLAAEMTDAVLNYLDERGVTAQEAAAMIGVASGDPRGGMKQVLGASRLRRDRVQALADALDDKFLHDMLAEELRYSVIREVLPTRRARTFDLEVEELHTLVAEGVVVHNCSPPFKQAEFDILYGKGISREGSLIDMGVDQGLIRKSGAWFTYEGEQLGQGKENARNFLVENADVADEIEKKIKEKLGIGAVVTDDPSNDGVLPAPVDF

[21] = target: T3, Sphingosine 1-phosphate receptor 4 (Homo sapiens, UniProt O95977); assay: Fluorescence dose response cell-based high throughput screening assay for antagonists of the Sphingosine 1-Phosphate Receptor 4 (S1P4). [Related pubchem assays: 1524 (Confirmation in triplicates.), 1510 (Primary screen.)]; type: functional
T3 sequence (O95977 whole entry): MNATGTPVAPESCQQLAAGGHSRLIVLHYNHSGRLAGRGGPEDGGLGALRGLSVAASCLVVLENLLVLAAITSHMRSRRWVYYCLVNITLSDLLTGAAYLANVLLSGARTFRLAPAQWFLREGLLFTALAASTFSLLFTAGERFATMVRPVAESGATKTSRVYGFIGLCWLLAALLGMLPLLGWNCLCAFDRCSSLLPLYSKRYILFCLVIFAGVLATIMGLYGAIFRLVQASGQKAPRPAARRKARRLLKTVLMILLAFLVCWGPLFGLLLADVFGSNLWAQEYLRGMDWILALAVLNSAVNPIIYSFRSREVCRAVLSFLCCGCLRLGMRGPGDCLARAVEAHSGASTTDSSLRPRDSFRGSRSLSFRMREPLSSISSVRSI

[22] = Fluorescence-based cell-based high throughput dose response assay for inhibitors of the interaction of nucleotide-binding oligomerization domain containing 2 (NOD2) and the receptor-interacting serine-threonine kinase 2 (RIPK2).; type: functional; settings: Homo sapiens
[23] = A Cell Based Secondary Assay to Explore Cytotoxicity in THP-1 Cells of Compounds that Modulate Mycobacterium tuberculosis in Media Containing Glycerol versus Media without Glycerol (2).; type: functional
[24] = microbe, parasite or virus in culture; type: functional; settings: Mycobacterium tuberculosis
[25] = target: Protein disulfide-isomerase (Homo sapiens, UniProt P07237); assay: PDI inhibitors, insulin aggregation turbidity, dose response, biochemical, absorbance, cherry-picked samples (AID 602350); type: functional
Sequence of Protein disulfide-isomerase (P07237 whole entry): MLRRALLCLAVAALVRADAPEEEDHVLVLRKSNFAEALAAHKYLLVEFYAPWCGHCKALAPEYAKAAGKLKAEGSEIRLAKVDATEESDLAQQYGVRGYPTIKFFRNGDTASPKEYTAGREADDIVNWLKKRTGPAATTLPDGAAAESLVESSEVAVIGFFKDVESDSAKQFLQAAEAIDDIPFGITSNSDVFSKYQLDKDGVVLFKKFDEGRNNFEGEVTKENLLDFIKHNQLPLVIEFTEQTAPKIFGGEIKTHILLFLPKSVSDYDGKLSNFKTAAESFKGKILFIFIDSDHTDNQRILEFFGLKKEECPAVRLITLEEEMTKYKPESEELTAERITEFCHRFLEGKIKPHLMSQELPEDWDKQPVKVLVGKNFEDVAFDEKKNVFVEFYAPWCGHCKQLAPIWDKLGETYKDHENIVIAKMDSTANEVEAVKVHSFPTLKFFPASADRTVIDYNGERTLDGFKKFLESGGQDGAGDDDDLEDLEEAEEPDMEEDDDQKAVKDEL

[26] = intracellular Trypanosoma cruzi inhibitors in host cells – cell-based, plate reader, cherry-pick samples, set 3, dose response (AID 651818); type: functional;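 also: compounds incubated with infected cells for about four days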

Sequence of Vascular endothelial growth factor receptor 2 (P35968 whole entry): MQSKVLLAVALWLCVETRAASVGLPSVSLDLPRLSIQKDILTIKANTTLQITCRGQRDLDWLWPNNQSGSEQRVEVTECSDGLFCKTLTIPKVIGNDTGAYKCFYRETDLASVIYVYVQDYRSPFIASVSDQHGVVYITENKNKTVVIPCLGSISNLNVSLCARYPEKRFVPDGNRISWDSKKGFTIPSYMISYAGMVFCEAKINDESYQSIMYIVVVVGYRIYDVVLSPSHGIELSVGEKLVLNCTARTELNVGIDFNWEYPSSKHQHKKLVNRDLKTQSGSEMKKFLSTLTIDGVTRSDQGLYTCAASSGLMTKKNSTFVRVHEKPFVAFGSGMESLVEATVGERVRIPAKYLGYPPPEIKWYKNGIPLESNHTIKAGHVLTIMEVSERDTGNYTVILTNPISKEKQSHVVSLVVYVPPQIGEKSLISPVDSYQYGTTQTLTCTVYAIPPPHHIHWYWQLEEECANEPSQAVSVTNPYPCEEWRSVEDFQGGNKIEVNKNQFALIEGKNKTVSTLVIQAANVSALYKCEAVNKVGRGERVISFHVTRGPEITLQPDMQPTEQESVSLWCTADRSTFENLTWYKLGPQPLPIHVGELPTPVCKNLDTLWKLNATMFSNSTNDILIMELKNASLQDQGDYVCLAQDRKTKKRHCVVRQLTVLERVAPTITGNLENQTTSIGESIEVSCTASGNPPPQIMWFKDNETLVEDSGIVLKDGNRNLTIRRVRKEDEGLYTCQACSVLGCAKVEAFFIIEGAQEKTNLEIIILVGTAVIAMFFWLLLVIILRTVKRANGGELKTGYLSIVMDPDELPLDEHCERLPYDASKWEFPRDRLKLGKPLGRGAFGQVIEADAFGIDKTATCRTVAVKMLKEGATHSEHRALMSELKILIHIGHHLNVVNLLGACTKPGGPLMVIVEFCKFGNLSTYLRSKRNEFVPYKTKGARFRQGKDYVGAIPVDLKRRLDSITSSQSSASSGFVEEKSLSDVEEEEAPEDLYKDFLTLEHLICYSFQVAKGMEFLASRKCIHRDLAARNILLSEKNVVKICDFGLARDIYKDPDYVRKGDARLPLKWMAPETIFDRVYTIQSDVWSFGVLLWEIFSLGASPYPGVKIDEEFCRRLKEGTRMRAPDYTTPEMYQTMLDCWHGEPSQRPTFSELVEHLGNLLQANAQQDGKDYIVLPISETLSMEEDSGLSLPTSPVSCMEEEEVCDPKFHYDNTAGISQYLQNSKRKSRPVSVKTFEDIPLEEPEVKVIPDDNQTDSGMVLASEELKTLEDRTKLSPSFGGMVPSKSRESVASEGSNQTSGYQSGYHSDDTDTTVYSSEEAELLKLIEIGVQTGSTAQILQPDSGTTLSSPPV

N#Cc1cnn2c(-c3ccccc3)ccnc12
active: Ki [4] 10 µM
inactive: Ki [1] > 100 µM | Ki [2] > 100 µM | Ki [3] > 100 µM

CC(C)C(=O)N1CCC2(CC1)Oc1ccc(F)cc1C(=O)C21CC(c2ccccc2)=NO1 (stereo not drawn)
active: EC50 [5] 12.5 µM | EC50 [6] 23.9 µM

CCOC(=O)c1ccc(NC(=O)Cn2ncc(Cl)c(Cl)c2=O)cc1
active: EC50 [7] 2.06 µM | EC50 [8] 1.96 µM | AC50 (Paired box protein Pax-8) 6.64 µM | AC50 [9] 5.4 µM | IC50 [10] 9.77 µM | EC50 [11] 0.582 µM | AC50 [12] 3.72 µM | AC50 [13] 3.69 µM | AC50 [14] 12.1 µM | CC50 [15] 8.45 µM | AC50 [16] 14.1 µM | AC50 [18] 2.32 µM | AC50 [19] 46 µM | CC50 [20] 3.21 µM | EC50 (Protein RecA) 3.77 µM | IC50 [21] 1.47 µM | IC50 [22] 1.77 µM | CC50 [23] 1.62 µM | CC50 [24] 6.68 µM
inconclusive: EC50 [17] 2.69 µM

C[C@H](CO)N1C[C@H](C)[C@H](CN(C)S(=O)(=O)c2ccc(F)cc2)Oc2ccc(NC(=O)Cc3cn(C)c4ccccc34)cc2C1=O
active: AC50 [25] 19.5 µM | AC50 [26] 5.29 µM
